Test results published in patent US20100036088A1, “Selective poly-N-substituted glycine antibiotics” (priority 2008, published 2010).
pIC50: −log10 of the molar value. Converted amounts (≈) assume the structure as drawn. Read-outs that look alike come from different tables or passages of the source. Marks after values point to notes of the source that are not given here. Square brackets hold non-standard residues; d marks the D form. Peptide text beside a SMILES is read from it. Nspe = C[C@H](NCC(=O)O)c1ccccc1; NDecylGly = CCCCCCCCCCNCC(=O)O; NPentylGly = CCCCCNCC(=O)O; Nphe = O=C(O)CNCc1ccccc1; Nlys = NCCCCNCC(=O)O

Key:
human erythrocytes = experiment: Hemolysis assay; type: cell-based
Outline: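 Peptoid serial dilutions in PBS pH 7.4 were combined with an equal volume of 20 vol % washed human red cells (heparinised blood) for 1 h at 37 °C. After dilution and pelleting at 1200 g, released haemoglobin in supernatant was read at A350, scaled between PBS and 0.2 vol % Triton X-100 controls.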

[1] = MTS assay, metabolic inhibition; type: cell-based, mouse
Outline: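 NIH/3T3 cells seeded at 5,000 per well, grown a day, then exposed to serially diluted peptoids in HBSS together with MTS reagent. Absorbance at 490 nm read after 3 hours at 37° C.; mean of six replicates.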

E. coli (ATCC 35218) = type: cell-based; conditions: ATCC 35218
Outline: (§1)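 MICs by broth microdilution per CLSI M7-A6 in cation-adjusted Mueller-Hinton broth, using 2:1 serial dilutions of peptoid and a bacterial inoculum of 1×10^6 CFU/mL. Values reproducible over three experiments, each with two parallel trials.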

B. subtilis (ATCC 6633) = type: cell-based; conditions: ATCC 6633
Outline: as §1

[2] = system: Staphylococcus aureus NRS119; type: cell-based; conditions: NRS119
Procedure: (§2) Antibacterial assays. MICs were determined according to CLSI M7-A6 protocols in a 96-well microtiter plate. In test wells, 50 μL bacterial inoculum (5×10^5 CFU/ml) in Mueller-Hinton broth (MHB) was added to 50 μL peptoid solution in MHB (prepared by 1:2 serial dilutions). Positive controls contained 50 μL inoculum and 50 μL MHB without peptoid. […] MIC values reported were reproducible between three independent experimental replicates, each consisting of two parallel trials. Broad-spectrum antimicrobial susceptibility testing was performed against BSL2 pathogens by Nova Biologicals, Inc. (Conroe, Tex.).
(§3) Broad-spectrum antibacterial assays. MICs of compounds were determined by microdilution procedure in Mueller-Hinton broth (MHB) in accordance with CLSI M7-A6 protocols in a manner similar to that described for the screen antibacterial assays. Inoculated microtiter plates were incubated at 35° C. for 24 hours prior to the result being recorded. Four ATCC strains that were used as standards are recommended by CLSI: Pseudomonas aeruginosa ATCC 27853, Escherichia coli ATCC 25922, Staphylococcus aureus ATCC 29213 and Enterococcus faecalis ATCC 29212. Other strains from the ATCC collection include Proteus vulgaris ATCC 49132, Proteus mirabilis ATCC 35659, Klebsiella pneumoniae ATCC 33495, Enterobacter aerogenes ATCC 35029 and Serratia marcescens ATCC 13880. S. aureus NRS100 (COL) is a well characterized methicillian-resistant S. aureus (MRSA) strain. The strains S. aureus VAN1 and S. aureus VAN2, vancomycin-resistant MRSA strains that were isolated in Michigan and Pennsylvania, were the first vancomycin-resistant strains clinically isolated. S. aureus NRS119 and S. aureus NRS120 are linezolid-resistant isolates from the Network on Antimicrobial Resistance in S. aureus (NARSA) collection. E. faecalis 99 and E. faecium 106 are vancomycin-resistant enterococcal strains.

[3] = system: Enterococcus faecalis ATCC 29212; type: cell-based; conditions: ATCC 29212
Procedure: as §2, §3

Enterococcus faecium 106 = type: cell-based; conditions: 106
Procedure: as §2, §3

[4] = system: Enterobacter aerogenes ATCC 35029; type: cell-based; conditions: ATCC 35029
Procedure: as §2, §3

[5] = system: Staphylococcus aureus NRS100 (COL); type: cell-based; conditions: NRS100 (COL)
Procedure: as §2, §3

[6] = system: Pseudomonas aeruginosa ATCC 27853; type: cell-based; conditions: ATCC 27853
Procedure: as §2, §3

[7] = system: Staphylococcus aureus ATCC 29213; type: cell-based; conditions: ATCC 29213
Procedure: as §2, §3

[8] = system: Serratia marcescens ATCC 13880; type: cell-based; conditions: ATCC 13880
Procedure: as §2, §3

[9] = system: Escherichia coli ATCC 25922; type: cell-based; conditions: ATCC 25922
Procedure: as §2, §3

[10] = system: Klebsiella pneumoniae ATCC 33495; type: cell-based; conditions: ATCC 33495
Procedure: as §2, §3

[11] = system: Proteus vulgaris ATCC 49132; type: cell-based; conditions: ATCC 49132
Procedure: as §2, §3

[12] = system: Staphylococcus aureus VAN2; type: cell-based; conditions: VAN2
Procedure: as §2, §3

[13] = system: Proteus mirabilis ATCC 35659; type: cell-based; conditions: ATCC 35659
Procedure: as §2, §3

[14] = system: Staphylococcus aureus VAN1; type: cell-based; conditions: VAN1
Procedure: as §2, §3

[15] = system: Staphylococcus aureus NRS120; type: cell-based; conditions: NRS120
Procedure: as §2, §3

Enterococcus faecalis 99 = type: cell-based; conditions: 99
Procedure: as §2, §3

[16] = system: Candida albicans (SC5314); type: cell-based, C. albicans
Procedure: Additionally, in order to characterize possible antifungal activity, a library of alkylated compounds was tested against C. albicans, a representative fungal strain.
Antifungal Assays. MICs were determined using the broth microdilution assay given by CLSI M27-A2 protocols. Candida albicans (SC5314) was grown on Sabouraud dextrose agar for 24 hours at 30° C. Cells were suspended in 0.145 M saline, and the cell concentration was adjusted to 3×10^6 cells/mL. After adjusting the cell concentration, the suspension was diluted 1:1000 with RPMI 1640 (with L-glutamine and without sodium bicarbonate, Invitrogen) buffered with 0.145 M 3-(N-morpholino) propanesulfonic acid (MOPS). Two-fold serial dilutions of peptoids, peptides, and amphotericin B (Calbiochem) were prepared in RPMI 1640 and mixed with an equal volume of the cell suspension in 96-well plates. The final testing concentrations for the peptoids and peptides were 0.20 to 100 μM, and concentrations for amphotericin B were 0.031 to 16 μM. Growth controls and sterility controls were also included. Plates were incubated for 48 hours at 35° C., and growth of C. albicans was inspected visually to determine the MICs. The MIC for each compound was defined as the lowest concentration with no visible fungal growth. Experiments were performed in duplicate on two separate days.

B. subtilis = type: cell-based
Procedure: as §2
(§4) Screening antibacterial assays. MICs were determined in 96-well microtiter plates in accordance with CLSI M7-A6 protocols. Peptoid solutions with 50 μL total volume were prepared using 2:1 serial dilutions. 50 μL of bacteria inoculum (1×10^6 CFU/mL) prepared in cation-adjusted Mueller-Hinton broth (CAMHB) was added to test wells. Control wells contained 100 μL MHB (no growth) or 50 μL inoculums with 50 μL MHB with no peptoid. […] Reported values were reproducible over three experiments, each containing two parallel trials.

E. coli = type: cell-based
Procedure: as §2, §4

**Q.** Which results are given for `C[C@@H](c1ccccc1)N(CC(N)=O)C(=O)CN(Cc1ccccc1)C(=O)CN(CCCCN)C(=O)CN(C(=O)CN(Cc1ccccc1)C(=O)CN(CCCCN)C(=O)CN(C(=O)CN(Cc1ccccc1)C(=O)CN(CCCCN)C(=O)CN(C(=O)CN(Cc1ccccc1)C(=O)CNCCCCN)[C@@H](C)c1ccccc1)[C@@H](C)c1ccccc1)[C@@H](C)c1ccccc1` [1-Npm2,5,8,11, H-(Nlys-Npm-Nspe)4-NH2] (H-[Nlys][Nphe][Nspe][Nlys][Nphe][Nspe][Nlys][Nphe][Nspe][Nlys][Nphe][Nspe]-NH2)?
**A.** HD10 (human erythrocytes): 87 µM; HD50 (human erythrocytes): > 200 µM; pIC50 [1]: 5.17; E. coli MIC (E. coli (ATCC 35218)): 6.3 µM; B. subtilis MIC (B. subtilis (ATCC 6633)): 1.6 µM; MIC Staphylococcus aureus NRS119 [2]: 9.1 µM (≈ 16 µg/mL); MIC Enterococcus faecalis ATCC 29212 [3]: 4.5 µM (≈ 7.93 µg/mL); MIC Enterococcus faecium 106 (Enterococcus faecium 106): 2.3 µM (≈ 4.06 µg/mL); MIC Enterobacter aerogenes ATCC 35029 [4]: 36.3 µM (≈ 64 µg/mL); MIC Staphylococcus aureus NRS100 (COL) [5]: 4.5 µM (≈ 7.93 µg/mL); MIC Pseudomonas aeruginosa ATCC 27853 [6]: 36.3 µM (≈ 64 µg/mL); MIC Staphylococcus aureus ATCC 29213 [7]: 4.5 µM (≈ 7.93 µg/mL); MIC S. marcescens ATCC 13880 [8]: >128 µg/mL; MIC Serratia marcescens ATCC 13880 [8]: >72.6 µM; MIC Escherichia coli ATCC 25922 [9]: 4.5 µM (≈ 7.93 µg/mL); MIC Klebsiella pneumoniae ATCC 33495 [10]: 9.1 µM (≈ 16 µg/mL); MIC Proteus vulgaris ATCC 49132 [11]: 36.3 µM (≈ 64 µg/mL); MIC Staphylococcus aureus VAN2 [12]: 4.5 µM (≈ 7.93 µg/mL); MIC P. mirabilis ATCC 35659 [13]: >128 µg/mL; MIC Proteus mirabilis ATCC 35659 [13]: >72.6 µM; MIC Staphylococcus aureus VAN1 [14]: 4.5 µM (≈ 7.93 µg/mL); MIC Staphylococcus aureus NRS120 [15]: 9.1 µM (≈ 16 µg/mL); MIC Enterococcus faecalis 99 (Enterococcus faecalis 99): 36.3 µM (≈ 64 µg/mL)

**Q.** Which HD10 (human erythrocytes) does the source give for `CCCCCNCC(=O)N(CCCCN)CC(=O)N(CC(=O)N(CC(=O)N(CCCCN)CC(=O)N(CC(=O)N(CC(=O)N(CCCCN)CC(=O)N(CC(=O)N(CC(N)=O)[C@@H](C)c1ccccc1)[C@@H](C)c1ccccc1)[C@@H](C)c1ccccc1)[C@@H](C)c1ccccc1)[C@@H](C)c1ccccc1)[C@@H](C)c1ccccc1` [C5-19 mer] (H-[NPentylGly][Nlys][Nspe][Nspe][Nlys][Nspe][Nspe][Nlys][Nspe][Nspe]-NH2) here?
**A.** Its HD10 is 65 µM.

**Q.** What about the HD50 (human erythrocytes) of the same compound?
**A.** The HD50 was greater than 200 µM.

**Q.** What about the “C. albicans MIC” value ([16]; SC5314) of the same compound?
**A.** Its value is 12.5 µM.

**Q.** And the “B. subtilis MIC” value (B. subtilis)?
**A.** Its value is 1.0 µM.

**Q.** What about the “E. coli MIC” value (E. coli) of the same compound?
**A.** The value was 16.3 µM.

**Q.** Which results are given for `C[C@@H](c1ccccc1)N(CC(N)=O)C(=O)CN(C(=O)CN(CCCCN)C(=O)CN(C(=O)CN(C(=O)CNCCCCN)[C@@H](C)c1ccccc1)[C@@H](C)c1ccccc1)[C@@H](C)c1ccccc1` [16 mer, H-(Nlys-Nspe-Nspe)2-NH2] (H-[Nlys][Nspe][Nspe][Nlys][Nspe][Nspe]-NH2)?
**A.** HD10 (human erythrocytes): >220/>220 μM; HD50 (human erythrocytes): >220/>220 μM; HD10 (10% hemolytic dose) (human erythrocytes; red cells of human, 1 h): >220/>220 μM; HD50 (50% hemolytic dose) (human erythrocytes; red cells of human, 1 h): >220/>220 μM; C. albicans MIC ([16]; SC5314, 48 h): >100 µM; B. subtilis MIC (B. subtilis): 27* μM; E. coli MIC (E. coli): 27* μM

**Q.** Which HD10 (human erythrocytes) does the source give for `CCCCCCCCCCNCC(=O)N(CCCCN)CC(=O)N(CC(=O)N(CC(=O)N(CCCCN)CC(=O)N(CC(=O)N(CC(=O)N(CCCCN)CC(=O)N(CC(=O)N(CC(=O)N(CCCCN)CC(=O)N(CC(=O)N(CC(N)=O)[C@@H](C)c1ccccc1)[C@@H](C)c1ccccc1)[C@@H](C)c1ccccc1)[C@@H](C)c1ccccc1)[C@@H](C)c1ccccc1)[C@@H](C)c1ccccc1)[C@@H](C)c1ccccc1)[C@@H](C)c1ccccc1` [C10-1] (H-[NDecylGly][Nlys][Nspe][Nspe][Nlys][Nspe][Nspe][Nlys][Nspe][Nspe][Nlys][Nspe][Nspe]-NH2) here?
**A.** Its HD10 is 8 µM.

**Q.** And the HD50 (human erythrocytes)?
**A.** Its HD50 is 27 µM.

**Q.** What about the “C. albicans MIC” value ([16]; SC5314) of the same compound?
**A.** The value was 1.6 µM.

**Q.** And the “B. subtilis MIC” value (B. subtilis)?
**A.** The value was 1.6 µM.

**Q.** What about the “E. coli MIC” value (E. coli) of the same compound?
**A.** The value was 12.5 µM.
